Measurements reported in patent publication US7211572B2 (Japan Tobacco Inc., priority 2003, dated 2007).
pIC50: −log10 of the molar value. Counter-ions that a name gives are not always drawn.

Each compound was assayed against T1, HIV integrase (Human immunodeficiency virus type 1 group M subtype B, UniProt P12497, F1332H) (assay: Determination of enzyme (HIV integrase) inhibitory activity). Conditions: recombinant HIV integrase (F185H), strand transfer ELISA, absorbance at 450 nm.
T1 construct: HIV integrase full length gene; made in house; host or cells: Escherichia coli BL21(DE3), plasmid pET21a-INH
Format: biochemical
Outline: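 Full-length integrase with F185H, expressed in E. coli and purified, was reacted for 60 min at 37 °C with compound and biotinylated donor DNA bound to streptavidin plates. Target DNA was added for 10 min, then anti-digoxigenin-peroxidase detection at A450; IC50 from % inhibition versus enzyme-free blank.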

Q: How did the pIC50 turn out when `O=c1ccn2ccn(CCCc3ccc(Cl)c(Cl)c3)c(=O)c2c1O` [Example 79, 2-[3-(3,4-dichlorophenyl)propyl]-9-hydroxy-2H-pyrido[1,2-a]pyrazine-1,8-dione] was run?
A: 7.00 to 8.00

Q: `O=c1ccn2ccn(CCCc3cc(Cl)cc(Cl)c3)c(=O)c2c1O` [Example 80, 2-[3-(3,5-dichlorophenyl)propyl]-9-hydroxy-2H-pyrido[1,2-a]pyrazine-1,8-dione] was tested. Which pIC50 did it give?
A: 7.00 to 8.00

Q: With `O=C(Cc1cc(=O)c(O)c2n1CCN(Cc1ccc(Cl)c(Cl)c1)C2=O)OCc1ccccc1` [Example 81] as the compound, how does the pIC50 read?
A: > 8.00

Q: `O=C(OCc1ccccc1)C(Cc1ccccc1)c1cc(=O)c(O)c2n1CCN(Cc1ccc(Cl)c(Cl)c1)C2=O` (stereo not shown) [Example 82, benzyl 2-[2-(3,4-dichlorobenzyl)-9-hydroxy-1,8-dioxo-1,3,4,8-tetrahydro-2H-pyrido[1,2-a]pyrazin-6-yl]-3-phenylpropionate] was tested. Which pIC50 did it give?
A: 7.00 to 8.00

Q: How did the pIC50 turn out when `O=C1c2c(O)c(=O)cc(CCO)n2CCN1Cc1ccc(Cl)c(Cl)c1` [Example 83, 2-(3,4-dichlorobenzyl)-9-hydroxy-6-(2-hydroxyethyl)-3,4-dihydro-2H-pyrido[1,2-a]pyrazine-1,8-dione] was run?
A: 7.00 to 8.00

Q: With `CCCc1cn(Cc2ccc(Cl)c(Cl)c2)c(=O)c2c(O)c(=O)ccn12` [Example 84, 2-(3,4-dichlorobenzyl)-9-hydroxy-4-propyl-2H-pyrido[1,2-a]pyrazine-1,8-dione] as the compound, how does the pIC50 read?
A: > 8.00

Q: How did the pIC50 turn out when `CCc1cn(Cc2ccc(Cl)c(Cl)c2)c(=O)c2c(O)c(=O)ccn12` [Example 85, 2-(3,4-dichlorobenzyl)-4-ethyl-9-hydroxy-2H-pyrido[1,2-a]pyrazine-1,8-dione] was run?
A: 7.00 to 8.00

Q: With `O=c1ccn2c(CO)cn(Cc3ccc(Cl)c(Cl)c3)c(=O)c2c1O` [Example 86, 2-(3,4-dichlorobenzyl)-9-hydroxy-4-hydroxymethyl-2H-pyrido[1,2-a]pyrazine-1,8-dione] as the compound, how does the pIC50 read?
A: > 8.00

Q: `CC(C)Cc1cn(Cc2ccc(Cl)c(Cl)c2)c(=O)c2c(O)c(=O)ccn12` [Example 87, 2-(3,4-dichlorobenzyl)-9-hydroxy-4-isobutyl-2H-pyrido[1,2-a]pyrazine-1,8-dione] was tested. Which pIC50 did it give?
A: > 8.00

Q: How did the pIC50 turn out when `O=c1ccn2ccn(Cc3cccc(Cl)c3)c(=O)c2c1O` [Example 88, 2-(3-chlorobenzyl)-9-hydroxy-2H-pyrido[1,2-a]pyrazine-1,8-dione hydrochloride] was run?
A: 7.00 to 8.00

Q: `COC(=O)c1cn(Cc2ccc(Cl)c(Cl)c2)c(=O)c2c(O)c(=O)ccn12` [Example 89, methyl 2-(3,4-dichlorobenzyl)-9-hydroxy-1,8-dioxo-1,8-dihydro-2H-pyrido[1,2-a]pyrazine-4-carboxylate] was tested. Which pIC50 did it give?
A: 7.00 to 8.00

Q: How did the pIC50 turn out when `O=c1ccn2ccn(Cc3ccc(F)c(Cl)c3)c(=O)c2c1O` [Example 90, 2-(3-chloro-4-fluorobenzyl)-9-hydroxy-2H-pyrido[1,2-a]pyrazine-1,8-dione hydrochloride] was run?
A: > 8.00

Q: `O=c1ccn2ccn(CCCc3cccc(Cl)c3Cl)c(=O)c2c1O` [Example 91, 2-[3-(2,3-dichlorophenyl)propyl]-9-hydroxy-2H-pyrido[1,2-a]pyrazine-1,8-dione hydrochloride] was tested. Which pIC50 did it give?
A: 7.00 to 8.00

Q: How did the pIC50 turn out when `CC(C)c1cn(Cc2ccc(F)c(Cl)c2)c(=O)c2c(O)c(=O)ccn12` [Example 92, 2-(3-chloro-4-fluorobenzyl)-9-hydroxy-4-isopropyl-2H-pyrido[1,2-a]pyrazine-1,8-dione hydrochloride] was run?
A: > 8.00

Q: `COC(=O)c1cn(Cc2cccc(Cl)c2)c(=O)c2c(O)c(=O)ccn12` [Example 93, methyl 2-(3-chlorobenzyl)-9-hydroxy-1,8-dioxo-1,8-dihydro-2H-pyrido[1,2-a]pyrazine-4-carboxylate] was tested. Which pIC50 did it give?
A: 7.00 to 8.00

Q: How did the pIC50 turn out when `O=c1c(Br)cn2ccn(Cc3cccc(Cl)c3)c(=O)c2c1O` [Example 94, 7-bromo-2-(3-chlorobenzyl)-9-hydroxy-2H-pyrido[1,2-a]pyrazine-1,8-dione hydrochloride] was run?
A: 7.00 to 8.00

Q: With `O=c1ccn2ccn(CCCc3c(F)cccc3Cl)c(=O)c2c1O` [Example 95, 2-[3-(2-chloro-6-fluorophenyl)propyl]-9-hydroxy-2H-pyrido[1,2-a]pyrazine-1,8-dione hydrochloride] as the compound, how does the pIC50 read?
A: 7.00 to 8.00

Q: With `O=c1c(-c2ccccc2)cn2ccn(Cc3cccc(Cl)c3)c(=O)c2c1O` [Example 96, 2-(3-chlorobenzyl)-9-hydroxy-7-phenyl-2H-pyrido[1,2-a]pyrazine-1,8-dione hydrochloride] as the compound, how does the pIC50 read?
A: > 8.00

Q: With `CN(C)C(=O)c1cn(Cc2cccc(Cl)c2)c(=O)c2c(O)c(=O)ccn12` [Example 97, N,N-dimethyl-2-(3-chlorobenzyl)-9-hydroxy-1,8-dioxo-1,8-dihydro-2H-pyrido[1,2-a]pyrazine-4-carboxamide] as the compound, how does the pIC50 read?
A: 7.00 to 8.00

Q: With `O=C(O)c1cn(Cc2cccc(Cl)c2)c(=O)c2c(O)c(=O)ccn12` [Example 98, 2-(3-chlorobenzyl)-9-hydroxy-1,8-dioxo-1,8-dihydro-2H-pyrido[1,2-a]pyrazine-4-carboxylic acid] as the compound, how does the pIC50 read?
A: 7.00 to 8.00

Q: `O=c1c(O)c2c(=O)n(Cc3cccc(Cl)c3)ccn2c2ccccc12` [Example 99, 3-(3-chlorobenzyl)-5-hydroxy-3H-pyrazino[1,2-a]quinoline-4,6-dione hydrochloride] was tested. Which pIC50 did it give?
A: 7.00 to 8.00

Q: `O=c1ncn2ccn(Cc3cccc(Cl)c3)c(=O)c2c1O` [Example 100, 2-(3-chlorobenzyl)-9-hydroxy-2H-pyrazino[1,2-c]pyrimidine-1,8-dione hydrochloride] was tested. Which pIC50 did it give?
A: 7.00 to 8.00

Q: `O=Cc1cn(Cc2cccc(Cl)c2)c(=O)c2c(O)c(=O)ccn12` [Example 101, 2-(3-chlorobenzyl)-9-hydroxy-1,8-dioxo-1,8-dihydro-2H-pyrido[1,2-a]pyrazine-4-carbaldehyde] was tested. Which pIC50 did it give?
A: 7.00 to 8.00

Q: With `O=c1ccn2c(CO)cn(Cc3cccc(Cl)c3)c(=O)c2c1O` [Example 102, 2-(3-chlorobenzyl)-9-hydroxy-4-hydroxymethyl-2H-pyrido[1,2-a]pyrazine-1,8-dione] as the compound, how does the pIC50 read?
A: 7.00 to 8.00

Q: How did the pIC50 turn out when `CC(O)c1cn(Cc2cccc(Cl)c2)c(=O)c2c(O)c(=O)ccn12` (stereo not shown) [Example 103, 2-(3-chlorobenzyl)-9-hydroxy-4-(1-hydroxyethyl)-2H-pyrido[1,2-a]pyrazine-1,8-dione] was run?
A: 7.00 to 8.00

Q: `CC(C)c1cn2ccn(Cc3cccc(Cl)c3)c(=O)c2c(O)c1=O` [Example 104, 2-(3-chlorobenzyl)-9-hydroxy-7-isopropyl-2H-pyrido[1,2-a]pyrazine-1,8-dione hydrochloride] was tested. Which pIC50 did it give?
A: 7.00 to 8.00

Q: `CC(=O)c1cn(Cc2cccc(Cl)c2)c(=O)c2c(O)c(=O)ccn12` [Example 105, 4-acetyl-2-(3-chlorobenzyl)-9-hydroxy-2H-pyrido[1,2-a]pyrazine-1,8-dione] was tested. Which pIC50 did it give?
A: 7.00 to 8.00

Q: With `Cn1cc2c(c(O)c1=O)C(=O)N(Cc1cccc(Cl)c1)CC2` [Example 106, 2-(3-chlorobenzyl)-8-hydroxy-6-methyl-2,3,4,6-tetrahydro-2,6-naphthyridine-1,7-dione] as the compound, how does the pIC50 read?
A: 7.00 to 8.00

Q: How did the pIC50 turn out when `N#Cc1cn(Cc2cccc(Cl)c2)c(=O)c2c(O)c(=O)ccn12` [Example 107, 2-(3-chlorobenzyl)-9-hydroxy-1,8-dioxo-1,8-dihydro-2H-pyrido[1,2-a]pyrazine-4-carbonitrile] was run?
A: 7.00 to 8.00

Q: How did the pIC50 turn out when `O=C1c2c(O)c(=O)ncn2CCN1Cc1cccc(Cl)c1` [Example 108, 2-(3-chlorobenzyl)-9-hydroxy-3,4-dihydro-2H-pyrazino[1,2-c]pyrimidine-1,8-dione] was run?
A: 7.00 to 8.00

Q: How did the pIC50 turn out when `CS(=O)(=O)Oc1c(=O)c(Br)cn2ccn(Cc3cccc(Cl)c3)c(=O)c12` [Example 109, 7-bromo-2-(3-chlorobenzyl)-1,8-dioxo-1,8-dihydro-2H-pyrido[1,2-a]pyrazin-9-yl methanesulfonate] was run?
A: 6.00 to 7.00

Q: With `O=C1c2c(O)c(=O)c(Br)cn2CC(O)N1Cc1cccc(Cl)c1` (stereo not shown) [Example 110, 7-bromo-2-(3-chlorobenzyl)-3,9-dihydroxy-3,4-dihydro-2H-pyrido[1,2-a]pyrazine-1,8-dione hydrochloride] as the compound, how does the pIC50 read?
A: 6.00 to 7.00

Q: With `O=C1c2c(O)c(=O)c3ccccc3n2CCN1Cc1cccc(Cl)c1` [Example 111, 3-(3-chlorobenzyl)-5-hydroxy-2,3-dihydro-1H-pyrazino[1,2-a]quinoline-4,6-dione] as the compound, how does the pIC50 read?
A: 7.00 to 8.00

Q: `O=c1c(-c2cccc(Cl)c2)cn2ccn(Cc3cccc(Cl)c3)c(=O)c2c1O` [Example 112, 2-(3-chlorobenzyl)-7-(3-chlorophenyl)-9-hydroxy-2H-pyrido[1,2-a]pyrazine-1,8-dione hydrochloride] was tested. Which pIC50 did it give?
A: 7.00 to 8.00

Q: How did the pIC50 turn out when `O=c1c(-c2ccc(Cl)cc2)cn2ccn(Cc3cccc(Cl)c3)c(=O)c2c1O` [Example 113, 2-(3-chlorobenzyl)-7-(4-chlorophenyl)-9-hydroxy-2H-pyrido[1,2-a]pyrazine-1,8-dione hydrochloride] was run?
A: 7.00 to 8.00

Q: With `O=c1c(-c2ccccc2Cl)cn2ccn(Cc3cccc(Cl)c3)c(=O)c2c1O` [Example 114, 2-(3-chlorobenzyl)-7-(2-chlorophenyl)-9-hydroxy-2H-pyrido[1,2-a]pyrazine-1,8-dione hydrochloride] as the compound, how does the pIC50 read?
A: > 8.00

Q: `O=c1c(-c2cccnc2)cn2ccn(Cc3cccc(Cl)c3)c(=O)c2c1O` [Example 115, 2-(3-chlorobenzyl)-9-hydroxy-7-(pyridin-3-yl)-2H-pyrido[1,2-a]pyrazine-1,8-dione hydrochloride] was tested. Which pIC50 did it give?
A: > 8.00

Q: `O=c1c(-c2ccncc2)cn2ccn(Cc3cccc(Cl)c3)c(=O)c2c1O` [Example 116, 2-(3-chlorobenzyl)-9-hydroxy-7-(pyridin-4-yl)-2H-pyrido[1,2-a]pyrazine-1,8-dione hydrochloride] was tested. Which pIC50 did it give?
A: > 8.00

Q: How did the pIC50 turn out when `O=c1c(-c2ccccn2)cn2ccn(Cc3cccc(Cl)c3)c(=O)c2c1O` [Example 117, 2-(3-chlorobenzyl)-9-hydroxy-7-(pyridin-2-yl)-2H-pyrido[1,2-a]pyrazine-1,8-dione hydrochloride] was run?
A: > 8.00

Q: How did the pIC50 turn out when `CC(C)(C)C(O)c1cn2ccn(Cc3cccc(Cl)c3)c(=O)c2c(O)c1=O` (stereo not shown) [Example 118, 2-(3-chlorobenzyl)-9-hydroxy-7-(1-hydroxy-2,2-dimethylpropyl)-2H-pyrido[1,2-a]pyrazine-1,8-dione hydrochloride] was run?
A: 7.00 to 8.00
